How the values were obtained:
[1] = tested on: human colorectal carcinoma (HCT-116); experiment: MTT cytotoxicity assay, HCT-116; type: cell-based; details: 48 h, mean ± SD
Description: (§1) The cells of human liver carcinoma (HepG2), human breast adenocarcinoma (MCF-7), human colorectal carcinoma (HCT-116), and human lung carcinoma (A549) were purchased from the American Type Culture Collection (Rockville, MD). All cells were maintained in a Dulbecco’s modified Eagle’s medium (DMEM), which was supplemented with 10% of heat-inactivated fetal bovine serum (FBS) and 100 U/mL penicillin and streptomycin each. The cells were grown at 37 °C in a humidified atmosphere of 5% CO2.
(§2) The cytotoxicity activities on the human liver carcinoma (HepG2), human breast adenocarcinoma (MCF-7), human colorectal carcinoma (HCT-116), and human lung carcinoma (A549) cell lines were estimated employing the 3-(4,5-dimethyl-2-thiazolyl)-2,5-diphenyl-2H-tetrazolium bromide (MTT) assay, which was grounded on the reduction of the tetrazolium salt by mitochondrial dehydrogenases in viable cells.[51],[52] The cells were dispensed in a 96-well sterile microplate (3 × 10^4 cells/well), followed by their incubation at 37 °C with a series of different concentrations of 10 μL of each compound or doxorubicin (positive control, in DMSO) for 48 h in a serum-free medium prior to the MTT assay. Subsequently, the media were carefully removed, and 40 μL of MTT (2.5 mg/mL) was added to each well and then incubated for an additional 4 h. Purple formazan dye crystals were solubilized by the addition of 200 μL of DMSO. The absorbance was measured at 570 nm using a SpectraMax Paradigm Multi-Mode microplate reader. The relative cell viability was expressed as the mean percentage of viable cells relative to the untreated control cells. All experiments were conducted in triplicate and were repeated on three different days. All of the values were represented as mean ± standard deviation (SD). The IC50s were determined by the SPSS probit analysis software program (SPSS Inc., Chicago, IL).

[2] = tested on: human breast adenocarcinoma (MCF-7); experiment: MTT cytotoxicity assay, MCF-7; type: cell-based; details: MCF7, 48 h, mean ± SD
Description: as §1, §2

[3] = tested on: human liver carcinoma (HepG2); experiment: MTT cytotoxicity assay, HepG2; type: cell-based; details: 48 h, mean ± SD
Description: as §1, §2

[4] = tested on: human lung carcinoma (A549); experiment: MTT cytotoxicity assay, A549; type: cell-based; details: 48 h, mean ± SD
Description: as §1, §2

Row | melting point [°C] | Compound | IC50 [1] [µM] | IC50 [2] [µM] | IC50 [3] [µM] | IC50 [4] [µM]
1 | – | COc1ccc(Nc2n[nH]c(N=C3C(=O)N(C)c4ccccc43)c2C(=O)Nc2ccc(C)cc2)cc1 [5e, 3-(4-Methoxyphenylamino)-5-(1-methyl-2-oxoindolin-3-ylideneamino)-N-(4-methylphenyl)-1H-pyrazole-4-carboxamide] | 39.9 ± 4.2 | 61.8 ± 5.1 | 32 ± 3.9 | 77.7 ± 5.6
2 | – | CCN1C(=O)C(=Nc2[nH]nc(Nc3ccc(OC)cc3)c2C(=O)Nc2ccc(C)cc2)c2ccccc21 [5j, 5-(1-Ethyl-2-oxoindolin-3-ylideneamino)-3-(4-methoxyphenylamino)-N-(4-methylphenyl)-1H-pyrazole-4-carboxamide] | 38.9 ± 4.1 | 63.7 ± 5.5 | 24.4 ± 2.9 | 57 ± 4.9
3 | – | CCN1C(=O)C(=Nc2[nH]nc(Nc3ccc(OC)cc3)c2C(=O)Nc2ccccc2)c2ccccc21 [5i, 5-(1-Ethyl-2-oxoindolin-3-ylideneamino)-3-(4-methoxyphenylamino)-N-phenyl-1H-pyrazole-4-carboxamide] | 53.9 ± 5.7 | 30.1 ± 4.2 | 26.7 ± 3.1 | 47.8 ± 4.5
4 | – | CN1C(=O)C(=Nc2[nH]nc(Nc3ccccc3)c2C(=O)Nc2ccccc2)c2ccccc21 [5a, 5-(1-Methyl-2-oxoindolin-3-ylideneamino)-N-phenyl-3-(phenylamino)-1H-pyrazole-4-carboxamide] | 25.7 ± 3.5 | 28.3 ± 3.5 | 27.6 ± 3.1 | 42.8 ± 4.2
5 | 269 to 271 | CCN1C(=O)C(=Nc2[nH]nc(Nc3ccc(OC)cc3)c2C(N)=O)c2ccccc21 [5h, 5-(1-Ethyl-2-oxoindolin-3-ylideneamino)-3-(4-methoxyphenylamino)-1H-pyrazole-4-carboxamide] | 25.7 ± 4.3 | 25.4 ± 3.9 | 28.2 ± 3.5 | 41.9 ± 3.9
6 | – | COc1ccc(Nc2n[nH]c(N=Cc3c[nH]c4ccccc34)c2C(=O)Nc2ccc(C)cc2)cc1 [7e, 5-((1H-Indol-3-yl)methyleneamino)-3-(4-methoxyphenylamino)-N-(4-methylphenyl)-1H-pyrazole-4-carboxamide] | 37.4 ± 4.1 | 16.2 ± 2.3 | 25.8 ± 3.5 | 40.8 ± 4.3
7 | – | COc1cccc2c1C(=O)c1c(O)c3c(c(O)c1C2=O)C[C@@](O)(C(=O)CO)C[C@@H]3O[C@H]1C[C@H](N)[C@H](O)[C@H](C)O1 [doxorubicin, reference compound] | 40 ± 3.9 | 64.8 ± 4.1 | 24.7 ± 3.2 | 58.1 ± 4.1
8 | – | CCN1C(=O)C(=Nc2[nH]nc(Nc3ccccc3)c2C(=O)Nc2ccccc2)c2ccccc21 [5f, 5-(1-Ethyl-2-oxoindolin-3-ylideneamino)-N-phenyl-3-(phenylamino)-1H-pyrazole-4-carboxamide] | 28.9 ± 3.9 | 42.1 ± 4.7 | 23.7 ± 3.1 | 52.9 ± 4.5
9 | – | Cc1ccc(NC(=O)c2c(Nc3ccccc3)n[nH]c2N=C2C(=O)N(C)c3ccccc32)cc1 [5b, 5-(1-Methyl-2-oxoindolin-3-ylideneamino)-3-(phenylamino)-N-(4-methylphenyl)-1H-pyrazole-4-carboxamide] | 28.1 ± 3.5 | 48 ± 5.1 | 37.1 ± 4.3 | 46.7 ± 4.9
10 | 265 to 267 | COc1ccc(Nc2n[nH]c(N=C3C(=O)N(C)c4ccccc43)c2C(N)=O)cc1 [5c, 3-(4-Methoxyphenylamino)-5-(1-methyl-2-oxoindolin-3-ylideneamino)-1H-pyrazole-4-carboxamide] | 39.5 ± 4.5 | 22 ± 3.5 | 32.8 ± 3.8 | 40.7 ± 4.1
11 | 260 to 262 | COc1ccc(Nc2n[nH]c(N=Cc3c[nH]c4ccccc34)c2C(N)=O)cc1 [7c, 5-((1H-Indol-3-yl)methyleneamino)-3-(4-methoxyphenylamino)-1H-pyrazole-4-carboxamide] | 31.9 ± 3.8 | 22.2 ± 3.3 | 35.8 ± 3.9 | 43.4 ± 4.2
12 | – | COc1ccc(Nc2n[nH]c(N=Cc3c[nH]c4ccccc34)c2C(=O)Nc2ccccc2)cc1 [7d, 5-((1H-Indol-3-yl)methyleneamino)-3-(4-methoxyphenylamino)-N-phenyl-1H-pyrazole-4-carboxamide] | 25.3 ± 3.5 | 17.4 ± 2.3 | 27.2 ± 3.5 | 58.7 ± 4.2
13 | – | CCN1C(=O)C(=Nc2[nH]nc(Nc3ccccc3)c2C(=O)Nc2ccc(C)cc2)c2ccccc21 [5g, 5-(1-Ethyl-2-oxoindolin-3-ylideneamino)-3-(phenylamino)-N-(4-methylphenyl)-1H-pyrazole-4-carboxamide] | 35.7 ± 3.9 | 54 ± 4.9 | 27.8 ± 3.5 | 46.8 ± 5.3
14 | – | COc1ccc(Nc2n[nH]c(N=C3C(=O)N(C)c4ccccc43)c2C(=O)Nc2ccccc2)cc1 [5d, 3-(4-Methoxyphenylamino)-5-(1-methyl-2-oxoindolin-3-ylideneamino)-N-phenyl-1H-pyrazole-4-carboxamide] | 54.2 ± 5.5 | 46.4 ± 4.5 | 34.8 ± 3.9 | 56 ± 4.1

Source: article PMC8154124, “Design, Synthesis, Anticancer Evaluation, Enzymatic Assays, and a Molecular Modeling Study of Novel Pyrazole–Indole Hybrids” (ACS Omega, 2021)
